Experimental data from US20240246920A1, “TRIAZOLE DERIVATIVES WITH ANTIFUNGAL ACTIVITY” (King's College London, priority 2020, published 2024).
Converted amounts (≈) assume the structure as drawn. Where two headings read alike, the source gives them in different places.

Assays:
[1] = system: C. parapsilosis NCPF3209; assay: microbe, parasite or virus in culture; type: cell-based, Candida parapsilosis; conditions: Lodderomyces parapsilosis, NCPF3209; Table 4, common panel; 24 hours, ≥50% inhibition; read-out: MIC C. parapsilosis NCPF3209
Description: (§1) The minimum inhibitory concentration of test compounds were determined in a panel of Candida species (see Table 4 below), using the a serial dilution method in 96-well plates using the following protocol.
(§2) Starter cultures of fungal strains to be tested were grown in 3 mL of RPMI 2% glucose media incubated at 37° C. with shaking at 200 rpm overnight. The culture media used was 900 mL H2O; 10.4 g RPMI 1640 (with L-glutamine and a pH indicator but without bicarbonate); 34.5 g MOPS and 18 g glucose. The pH of the media was adjusted to 7.0 with 1 M sodium hydroxide.
(§3) Solutions of the compound to be tested were prepared by dissolving the compound in DMSO and subsequently into media to the desired concentrations. […] The last two rows of each plate were control rows containing the culture media alone and the media plus fungi.
(§4) The fungi starter cultures were diluted 1:10 in water in cuvettes. This was then further diluted to an optical density (OD600) of 0.01 in media. 100 μL of the fungi was added to each well giving a starting concentration of fungus of 0.5-5×10^5/mL. One species of fungus was used on each plate. The plates were then held at 37° C. for 24 hours.
(§5) A plate reader was used to measure growth in each well at OD530 nm and the MIC was determined for each test compound. The MIC is defined as the lowest concentration giving rise to inhibition of ≥50% of that of the drug-free control well containing the fungus and media.

[2] = system: C. auris 8971; assay: Candida panel MIC, serial dilution in 96-well plates; type: cell-based, Candida auris; conditions: Candidozyma auris, 8971; Table 4, extended panel; 24 hours, ≥50% inhibition; read-out: MIC C. auris 8971
Description: as §1, §2, §3, §4, §5
(§6) The Candida auris strains shown in Table 7 were either taken from the National Collection of Pathogenic Fungi (NCPF) or collected as part of ongoing surveillance studies. The strains were characterised as follows.

[3] = system: C. auris 8984; assay: as above; type: cell-based, Candida auris; conditions: Candidozyma auris, 8984; Table 4, extended panel; 24 hours, ≥50% inhibition; read-out: MIC C. auris 8984
Description: as §1, §2, §3, §4, §5, §6

[4] = system: C. auris 8977; assay: as above; type: cell-based, Candida auris; conditions: Candidozyma auris, 8977; Table 4, extended panel; 24 hours, ≥50% inhibition; read-out: MIC C. auris 8977
Description: as §1, §2, §3, §4, §5, §6

[5] = system: C. glabrata NCPF8018; assay: as above; type: cell-based, Candida glabrata; conditions: Nakaseomyces glabratus, NCPF8018; Table 4, common panel; 24 hours, ≥50% inhibition; read-out: MIC C. glabrata NCPF8018
Description: as §1, §2, §3, §4, §5

[6] = system: Candida auris TDG2506; assay: microbe, parasite or virus in culture; type: cell-based; conditions: Candidozyma auris, TDG2506; Table 4, extended panel; 24 hours, ≥50% inhibition; read-out: MIC Candida auris TDG2506
Description: as §1, §2, §3, §4, §5, §6

[7] = system: Candida auris TDG2211; assay: microbe, parasite or virus in culture; type: cell-based; conditions: Candidozyma auris, TDG2211; Table 4, extended panel; 24 hours, ≥50% inhibition; read-out: MIC Candida auris TDG2211
Description: as §1, §2, §3, §4, §5, §6

[8] = system: C. albicans NCPF3281; assay: Candida panel MIC, serial dilution in 96-well plates; type: cell-based, Candida albicans; conditions: Candida albicans, read-out: MIC C. albicans NCPF3281
Description: as §1, §2
(§7) Solutions of the compound to be tested were prepared by dissolving the compound in DMSO and subsequently into media to the desired concentrations. 200 μL of compound solution was then added to the wells of the 96-well plate using a serial dilution method row-by row of the plate to give a compound concentration gradient across the plate of from 128 μg/mL to 0.25 μg/mL. The last two rows of each plate were control rows containing the culture media alone and the media plus fungi.
as §4, §5

[9] = system: C. auris TDG1912; assay: as above; type: cell-based; conditions: Candidozyma auris, read-out: MIC C. auris TDG1912
Description: as §1, §2, §7, §4, §5

[10] = system: C. tropicalis NCPF8760; assay: as above; type: cell-based; conditions: NCPF8760, Table 4, common panel, 24 hours, ≥50% inhibition, read-out: MIC C. tropicalis NCPF8760
Description: as §1, §2, §7, §4, §5

[11] = system: Candida auris TDG1102; assay: as above; type: cell-based; conditions: Candidozyma auris, TDG1102; Table 4, extended panel; 24 hours, ≥50% inhibition; read-out: MIC Candida auris TDG1102
Description: as §1, §2, §7, §4, §5

[12] = system: Candida auris TDG2512; assay: as above; type: cell-based; conditions: Candidozyma auris, read-out: MIC Candida auris TDG2512
Description: as §1, §2, §7, §4, §5

[13] = system: C. krusei NCPF3876; assay: microbe, parasite or virus in culture; type: cell-based, Candida krusei; conditions: Pichia kudriavzevii, NCPF3876; Table 4, common panel; 24 hours, ≥50% inhibition; read-out: MIC C. krusei NCPF3876
Description: as §1, §2, §3, §4, §5

[14] = NCPF3281, Table 4, common panel, 24 hours, ≥50% inhibition
[15] = TDG1912, Table 4, 24 hours, ≥50% inhibition
[16] = TDG2512, Table 4, extended panel, 24 hours, ≥50% inhibition

OC(CN1CCC(Nc2ccc(OCCN3CCCC3)cc2)CC1)(Cn1cncn1)c1ccc(F)cc1F (stereo not shown) [Example 82]
MIC [1]: 0.25 µg/mL (≈ 0.475 µM)
MIC [2]: 2 to 8 µg/mL (≈ 3.8 to 15.2 µM)
MIC [3]: 4 µg/mL (≈ 7.6 µM)
MIC [4]: 4 to 16 µg/mL (≈ 7.6 to 30.4 µM)
MIC [5]: 32 µg/mL (≈ 60.8 µM)
MIC [6]: 4 µg/mL (≈ 7.6 µM)
MIC [7]: 0.5 to 2 µg/mL (≈ 0.949 to 3.8 µM)
MIC [8, 14]: 0.25 µg/mL (≈ 0.475 µM)
MIC [9, 15]: 4 to 16 µg/mL (≈ 7.6 to 30.4 µM)
MIC [10]: > 32 µg/mL
MIC [11]: 16 µg/mL (≈ 30.4 µM)
MIC [12, 16]: 1 µg/mL (≈ 1.9 µM)
MIC [13]: 8 µg/mL (≈ 15.2 µM)

CC1CCN(COc2ccc(NC3CCN(CC(O)(Cn4cncn4)c4ccc(F)cc4F)CC3)cc2)CC1 (stereo not shown) [Example 83]
MIC [1]: 0.06 µg/mL (≈ 0.111 µM)
MIC [2]: 1 µg/mL (≈ 1.85 µM)
MIC [3]: 2 µg/mL (≈ 3.7 µM)
MIC [4]: 1 µg/mL (≈ 1.85 µM)
MIC [5]: 8 µg/mL (≈ 14.8 µM)
MIC [6]: 0.5 to 2 µg/mL (≈ 0.925 to 3.7 µM)
MIC [7]: 0.25 µg/mL (≈ 0.462 µM)
MIC [8, 14]: 0.06 µg/mL (≈ 0.111 µM)
MIC [9, 15]: 1 to 4 µg/mL (≈ 1.85 to 7.4 µM)
MIC [10]: 8 µg/mL (≈ 14.8 µM)
MIC [11]: 4 µg/mL (≈ 7.4 µM)
MIC [12, 16]: 0.25 µg/mL (≈ 0.462 µM)
MIC [13]: 4 µg/mL (≈ 7.4 µM)

Cc1ccc(Oc2ccc(NC3CCN(CC(O)(Cn4cncn4)c4ccc(F)cc4F)CC3)cc2)cc1 (stereo not shown) [Example 85]
MIC [1]: 0.00391 to 0.0313 µg/mL (≈ 0.00753 to 0.0602 µM)
MIC [2]: 0.00195 to 0.125 µg/mL (≈ 0.00375 to 0.241 µM)
MIC [3]: 0.0625 to 0.5 µg/mL (≈ 0.12 to 0.962 µM)
MIC [4]: 0.015 to 0.03 µg/mL (≈ 0.0289 to 0.0577 µM)
MIC [5]: 1 µg/mL (≈ 1.92 µM)
MIC [6]: 0.0625 to 0.125 µg/mL (≈ 0.12 to 0.241 µM)
MIC [7]: 0.015 to 0.125 µg/mL (≈ 0.0289 to 0.241 µM)
MIC [8, 14]: 0.0078 µg/mL (≈ 0.015 µM)
MIC [9, 15]: 0.0625 µg/mL (≈ 0.12 µM)
MIC [10]: 0.25 µg/mL (≈ 0.481 µM)
MIC [11]: 0.0625 to 0.25 µg/mL (≈ 0.12 to 0.481 µM)
MIC [12, 16]: 0.00391 to 0.0313 µg/mL (≈ 0.00753 to 0.0602 µM)
MIC [13]: 0.0156 to 0.25 µg/mL (≈ 0.03 to 0.481 µM)

OC(CN1CCC2(CCC(Nc3ccc(OCCN4CCOCC4)cc3)CC2)C1)(Cn1cncn1)c1ccc(F)cc1F (stereo not shown) [Example 87]
MIC [1]: 0.313 µg/mL (≈ 0.525 µM)
MIC [2]: 0.25 µg/mL (≈ 0.419 µM)
MIC [3]: 0.25 µg/mL (≈ 0.419 µM)
MIC [4]: 0.25 µg/mL (≈ 0.419 µM)
MIC [5]: 4 µg/mL (≈ 6.7 µM)
MIC [6]: 0.125 µg/mL (≈ 0.209 µM)
MIC [7]: 0.125 µg/mL (≈ 0.209 µM)
MIC ([8]; NCPF3281, 24 h): 0.313 µg/mL (≈ 0.525 µM)
MIC ([9]; TDG1912, 24 h): 0.5 µg/mL (≈ 0.838 µM)
MIC [10]: 2 µg/mL (≈ 3.35 µM)
MIC [11]: 0.5 µg/mL (≈ 0.838 µM)
MIC ([12]; TDG2512, 24 h): 0.0625 µg/mL (≈ 0.105 µM)
MIC [13]: 1 µg/mL (≈ 1.68 µM)

OC(CN1CCC2(CCN(c3ccc(OCCN4CCOCC4)cc3)CC2)C1)(Cn1cncn1)c1ccc(F)cc1F (stereo not shown) [Example 88]
MIC [1]: 0.0313 µg/mL (≈ 0.0537 µM)
MIC [2]: 0.25 µg/mL (≈ 0.429 µM)
MIC [3]: 0.25 µg/mL (≈ 0.429 µM)
MIC [4]: 0.125 µg/mL (≈ 0.215 µM)
MIC [5]: 4 µg/mL (≈ 6.86 µM)
MIC [6]: 0.25 µg/mL (≈ 0.429 µM)
MIC [7]: 0.125 µg/mL (≈ 0.215 µM)
MIC [8, 14]: 0.0313 µg/mL (≈ 0.0537 µM)
MIC [9, 15]: 0.5 µg/mL (≈ 0.858 µM)
MIC [10]: 1 µg/mL (≈ 1.72 µM)
MIC [11]: 0.5 µg/mL (≈ 0.858 µM)
MIC [12, 16]: 0.0625 µg/mL (≈ 0.107 µM)
MIC [13]: 1 µg/mL (≈ 1.72 µM)

OC(CN1CCCN(c2ccc(OCCN3CCOCC3)cc2)CC1)(Cn1cncn1)c1ccc(F)cc1F (stereo not shown) [Example 89]
MIC [1]: 0.0313 µg/mL (≈ 0.0577 µM)
MIC [2]: 0.25 µg/mL (≈ 0.461 µM)
MIC [3]: 4 to 8 µg/mL (≈ 7.37 to 14.7 µM)
MIC [4]: 0.25 µg/mL (≈ 0.461 µM)
MIC [5]: 2 µg/mL (≈ 3.69 µM)
MIC [6]: 4 to 8 µg/mL (≈ 7.37 to 14.7 µM)
MIC [7]: 0.5 µg/mL (≈ 0.921 µM)
MIC ([8]; NCPF3281, 24 h): 0.156 µg/mL (≈ 0.287 µM)
MIC ([9]; TDG1912, 24 h): 1 µg/mL (≈ 1.84 µM)
MIC [10]: 2 µg/mL (≈ 3.69 µM)
MIC [11]: 1 µg/mL (≈ 1.84 µM)
MIC ([12]; TDG2512, 24 h): 0.25 µg/mL (≈ 0.461 µM)
MIC [13]: 0.5 µg/mL (≈ 0.921 µM)

OC(CN1CCCC(Nc2ccc(OCCN3CCOCC3)cc2)CC1)(Cn1cncn1)c1ccc(F)cc1F (stereo not shown) [Example 91]
MIC [1]: 0.0625 µg/mL (≈ 0.112 µM)
MIC [2]: 0.5 µg/mL (≈ 0.898 µM)
MIC [3]: 4 µg/mL (≈ 7.19 µM)
MIC [4]: 0.5 µg/mL (≈ 0.898 µM)
MIC [5]: 16 µg/mL (≈ 28.7 µM)
MIC [6]: 4 µg/mL (≈ 7.19 µM)
MIC [7]: 0.25 µg/mL (≈ 0.449 µM)
MIC [8, 14]: 0.0156 µg/mL (≈ 0.0281 µM)
MIC [9, 15]: 4 µg/mL (≈ 7.19 µM)
MIC [10]: 8 µg/mL (≈ 14.4 µM)
MIC [11]: 2 µg/mL (≈ 3.59 µM)
MIC [12, 16]: 0.125 µg/mL (≈ 0.225 µM)
MIC [13]: 2 µg/mL (≈ 3.59 µM)
